This is an account of results in patent publication US8318697B2, “Prophylactic and therapeutic treatment of infectious and other diseases with mono- and disaccharide-based compounds” (Corixa Corporation, priority 2000, dated 2012).

For one assay, the system named is P. carinii. Description: Protection against P. carinii infection in anti-CD4 treated (immunocompromised) mice, lung impression smear score. The assay is classed as in vivo. Also noted: GIEMSA score for presence of P. carinii / SILVER score for presence of P. carinii: scale not given here. As to the method: Mice were pretreated with L3T4 anti-CD4 antibody for a minimum of 2 weeks (2 injections/week, 0.2 mg/injection) or until the peripheral CD4 count was reduced by at least about 50%.
An aqueous formulation was prepared containing 1 mg/ml 3-O-deacylated monophosphoryl lipid A and 108 μg/ml of the surfactant DPPC in water. The formulation was administered intratracheally via a small cannula at −24 hours and then twice a week for the remainder of the study. The concentrations administered are indicated below in Table 1. One million P. carinii were inoculated trans-tracheally at day 0. Twice-weekly treatments were continued for 7 weeks, lungs were removed and impression smears made. Slides were stained with Giemsa and silver and scored for the presence of P. carinni as follows.

The test system of another assay is C3H/HEJ splenocytes. Kind of assay: Cytokine induction in C3H/HEJ (toll-receptor 4 mutant) mouse splenic cultures. The assay is classed as cell-based. The protocol:
Lipid A compounds were tested by reconstitution in 0.2% triethanolamine in sterile water for irrigation, incubated at 56° C. and sonicated for 2×10 minutes at 37° C. LPS 055B5 (Sigma-Aldrich; St Louis, Mo.) was diluted into PBS.
BALB/c, DBA/2 and C3H/HEJ mice were purchased from The Jackson Laboratory (Bar Harbor, Me.). Spleens were taken from the mice between 2 PM and 3 PM, and separate single cell suspensions were obtained for each mouse strain. Red blood cells were lysed using Tris-ammonium chloride solution (Sigma-Aldrich), cells were washed and counted using Trypan Blue (Sigma-Aldrich) exclusion. One million splenocytes were cultured per well in 1.0 mL of culture medium. Splenic culture medium (SCM) was designed for 5 day or longer cultures of mouse splenocytes and consisted of RPMI 1640 (Sigma-Aldrich) supplemented to 5% with fetal bovine serum (HyClone; Logan, Utah), 100 ug/mL Gentamicin (Sigma-Aldrich), 250 ng/mL amphothericin (InVitrogen Life Technologies; Carlsbad, Calif.), 1×ITS (bovine insulin 500 ng/mL, human transferring 500 ng/mLg, sodium selenite 250 ng/mL, Sigma), beta-mercaptoethanol 43 nM (Sigma-Aldrich) purivic acid 1 mM (Sigma-Aldrich), HEPES 10 mM (Sigma-Aldrich). Data from these experiments is presented herein as FIG. 8.
BALB/c responses and C3H/HEJ responses were compared for MPL and RC552. […]

Another assay has as its system human macrophage. Description: Microarray of RNA from stimulated human macrophage. In kind it is cell-based.
The subject of a further assay is human whole blood. The assay is classed as cell-based.
[1] abbreviates: 25 MG/KG intratracheally at -24 hours then twice a week, 7 weeks, Table 1.
Setting [2] is: 100 MG/KG intratracheally, 7 weeks, Table 1.
Where [3] appears, read: 250 MG/KG intratracheally, 7 weeks, Table 1.

Consider “3-O-deacylated monophosphoryl lipid A [MPL]”, for which the “GIEMSA score for presence of P. carinii” value with P. carinii (setting [1]) stood at 3.4 ± 0.5; in the assay on P. carinii (setting [2]), 2.7 ± 0.5; with P. carinii (100 MG/KG, repeated study, Table 2), 1.3 ± 0.3; in the assay with P. carinii (200 MG/KG, repeated study, Table 2), 1.0 ± 0.3; in the assay with P. carinii (setting [3]), 1.8 ± 0.8. For the same substance, the “SILVER score for presence of P. carinii” value in the assay on P. carinii (setting [1]) is reported as 3.3 ± 0.1; in the assay with P. carinii (setting [2]), 3.2 ± 0.1; in the assay on P. carinii (setting [3]), 1.6 ± 0.2. Moreover, the “nonspecific resistance to infection by Pneumocystis carinii” value in the assay with P. carinii (pulmonary delivery, immunocompromised mice) was “promotes nonspecific resistance to infection by Pneumocystis carinii”. Moreover, the cytokine response result with C3H/HEJ splenocytes was “Neither MPL nor RC552 induced a cytokine response”. Besides, in the assay on human macrophage (1 hour), the “early TNF alpha RNA” value is “early (1 hour) TNF alpha RNA for both compounds”. The “6 hour TNF alpha RNA” value in the assay on human macrophage (6 hour) is listed as “measurable 6 hour RNA”. In addition, the “IL-1β cba2” value in the assay on human whole blood (donor 1) is listed as 1213. Further, in the assay with human whole blood (donor 2, ratio of IL-10 to TNF), the IL10/TNFα cba is 1. Besides, the TNFα/IL10 cba with human whole blood (donor 2, ratio of TNF to IL-10) came out at 1.
